Laboratory results as given in patent US20170326125A1, “MULTISUBSTITUTED AROMATIC COMPOUNDS AS INHIBITORS OF THROMBIN” (VERSEON CORPORATION, priority 2016, published 2017).

Each molecule was assayed against T1, Human thrombin (Homo sapiens, UniProt P00734) (assay: Inhibition of the protease activity of thrombin (chromogenic substrate S-2238)). Conditions: inhibition of the protease activity of thrombin; class symbols a/b/c.
T1 construct: purchased Haematologic Technologies Inc
Assay type: biochemical

Row | IC50 [nM] | SMILES
1 | > 1000 | CN(C(=O)c1cc(-c2ccccn2)n(CCc2ccc(F)cc2)n1)c1ccccc1 [Cmpd 131, 1-[2-(4-fluorophenyl)ethyl]-N-methyl-N-phenyl-5-(pyridin-2-yl)-1H-pyrazole-3-carboxamide]
2 | 100 to 1000 | CC(C)(C)C(=O)n1nc(-c2ccccc2F)cc1NCc1ccccc1 [Cmpd 133, 1-[5-(benzylamino)-3-(2-fluorophenyl)-1H-pyrazol-1-yl]-2,2-dimethylpropan-1-one]
3 | > 1000 | CC(C)CC(=O)n1nc(-c2ccccc2F)cc1NCc1ccccc1 [Cmpd 134, 1-[5-(benzylamino)-3-(2-fluorophenyl)-1H-pyrazol-1-yl]-3-methylbutan-1-one]
4 | 100 to 1000 | CCC(=O)n1nc(-c2cccc(F)c2)nc1NCc1ccccc1 [Cmpd 135, 1-[5-(benzylamino)-3-(3-fluorophenyl)-1H-1,2,4-triazol-1-yl]propan-1-one]
5 | < 100 | CC(C)(C)C(=O)n1nc(-c2ccco2)nc1NCc1ccccc1 [Cmpd 136, 1-[5-(benzylamino)-3-(furan-2-yl)-1H-1,2,4-triazol-1-yl]-2,2-dimethylpropan-1-one]
6 | < 100 | CC(C)(C)C(=O)n1nc(-c2ccccn2)nc1NCc1ccccc1 [Cmpd 137, 1-[5-(benzylamino)-3-(pyridin-2-yl)-1H-1,2,4-triazol-1-yl]-2,2-dimethylpropan-1-one]
7 | < 100 | CC(C)C(=O)n1nc(-c2ccccn2)nc1NCc1ccccc1 [Cmpd 138, 1-[5-(benzylamino)-3-(pyridin-2-yl)-1H-1,2,4-triazol-1-yl]-2-methylpropan-1-one]
8 | < 100 | O=C(Cc1ccccc1)n1nc(-c2ccccn2)nc1NCc1ccccc1 [Cmpd 139, 1-[5-(benzylamino)-3-(pyridin-2-yl)-1H-1,2,4-triazol-1-yl]-2-phenylethan-1-one]
9 | < 100 | CC(C)CC(=O)n1nc(-c2ccccn2)nc1NCc1ccccc1 [Cmpd 140, 1-[5-(benzylamino)-3-(pyridin-2-yl)-1H-1,2,4-triazol-1-yl]-3-methylbutan-1-one]
10 | < 100 | CCCC(=O)n1nc(-c2ccccn2)nc1NCc1ccccc1 [Cmpd 141, 1-[5-(benzylamino)-3-(pyridin-2-yl)-1H-1,2,4-triazol-1-yl]butan-1-one]
11 | 100 to 1000 | CC(C)CC(=O)n1nc(-c2ccccn2)cc1NCc1ccccc1 [Cmpd 144, 1-[5-(benzylamino)-3-(pyridin-2-yl)-1H-pyrazol-1-yl]-3-methylbutan-1-one]
12 | < 100 | CC(C)(C)C(=O)n1nc(-c2ccncc2)nc1NCc1ccccc1 [Cmpd 145, 1-[5-(benzylamino)-3-(pyridin-4-yl)-1H-1,2,4-triazol-1-yl]-2,2-dimethylpropan-1-one]
13 | < 100 | CC(C)C(=O)n1nc(-c2ccncc2)nc1NCc1ccccc1 [Cmpd 146, 1-[5-(benzylamino)-3-(pyridin-4-yl)-1H-1,2,4-triazol-1-yl]-2-methylpropan-1-one]
14 | < 100 | O=C(Cc1ccccc1)n1nc(-c2ccncc2)nc1NCc1ccccc1 [Cmpd 147, 1-[5-(benzylamino)-3-(pyridin-4-yl)-1H-1,2,4-triazol-1-yl]-2-phenylethan-1-one]
15 | < 100 | CC(C)CC(=O)n1nc(-c2ccncc2)nc1NCc1ccccc1 [Cmpd 148, 1-[5-(benzylamino)-3-(pyridin-4-yl)-1H-1,2,4-triazol-1-yl]-3-methylbutan-1-one]
16 | 100 to 1000 | O=C(CCc1ccccc1)n1nc(-c2ccncc2)nc1NCc1ccccc1 [Cmpd 149, 1-[5-(benzylamino)-3-(pyridin-4-yl)-1H-1,2,4-triazol-1-yl]-3-phenylpropan-1-one]
17 | < 100 | CCCC(=O)n1nc(-c2ccncc2)nc1NCc1ccccc1 [Cmpd 150, 1-[5-(benzylamino)-3-(pyridin-4-yl)-1H-1,2,4-triazol-1-yl]butan-1-one]

Row | IC50 [nM] | SMILES
18 | < 100 | CCC(=O)n1nc(-c2ccncc2)nc1NCc1ccccc1 [Cmpd 151, 1-[5-(benzylamino)-3-(pyridin-4-yl)-1H-1,2,4-triazol-1-yl]propan-1-one]
19 | < 100 | CC(C)(C)C(=O)n1nc(-c2cccs2)nc1NCc1ccccc1 [Cmpd 152, 1-[5-(benzylamino)-3-(thiophen-2-yl)-1H-1,2,4-triazol-1-yl]-2,2-dimethylpropan-1-one]
20 | > 1000 | CCC(=O)n1nc(-c2cccnc2)nc1SC [Cmpd 153, 1-[5-(methylsulfanyl)-3-(pyridin-3-yl)-1H-1,2,4-triazol-1-yl]propan-1-one]
21 | > 1000 | CCC(=O)n1nc(-c2cccs2)nc1SC [Cmpd 154, 1-[5-(methylsulfanyl)-3-(thiophen-2-yl)-1H-1,2,4-triazol-1-yl]propan-1-one]
22 | > 1000 | CCC(=O)n1nc(-c2cccnc2)nc1N [Cmpd 155, 1-[5-amino-3-(pyridin-3-yl)-1H-1,2,4-triazol-1-yl]propan-1-one]
23 | 100 to 1000 | COc1ccc(CNc2nc(-c3ccccn3)nn2C(=O)c2ccccc2)cc1 [Cmpd 157, 1-benzoyl-N-[(4-methoxyphenyl)methyl]-3-(pyridin-2-yl)-1H-1,2,4-triazol-5-amine]
24 | > 1000 | COc1ccc(CNc2nc(-c3ccncc3)nn2C(=O)c2ccccc2)cc1 [Cmpd 158, 1-benzoyl-N-[(4-methoxyphenyl)methyl]-3-(pyridin-4-yl)-1H-1,2,4-triazol-5-amine]
25 | < 100 | O=C(c1ccccc1)n1nc(-c2ccccn2)nc1NCc1ccccc1 [Cmpd 159, 1-benzoyl-N-benzyl-3-(pyridin-2-yl)-1H-1,2,4-triazol-5-amine]
26 | < 100 | O=C(c1ccccc1)n1nc(-c2ccncc2)nc1NCc1ccccc1 [Cmpd 160, 1-benzoyl-N-benzyl-3-(pyridin-4-yl)-1H-1,2,4-triazol-5-amine]
27 | > 1000 | Fc1ccc(CNc2nc(-c3ccccn3)n(Cc3ccccc3)n2)cc1 [Cmpd 162, 1-benzyl-N-[(4-fluorophenyl)methyl]-5-(pyridin-2-yl)-1H-1,2,4-triazol-3-amine]
28 | > 1000 | CC(O)c1cc(-c2ccccn2)nn1CCc1ccc(F)cc1 (stereo not shown) [Cmpd 163, 1-1-[2-(4-fluorophenyl)ethyl]-3-(pyridin-2-yl)-1H-pyrazol-5-ylethan-1-ol]
29 | > 1000 | CC(=O)c1cc(-c2ccccn2)nn1CCc1ccc(F)cc1 [Cmpd 164, 1-1-[2-(4-fluorophenyl)ethyl]-3-(pyridin-2-yl)-1H-pyrazol-5-ylethan-1-one]
30 | 100 to 1000 | CC(C)(C)C(=O)n1nc(-c2ccccn2)cc1NCc1ccoc1 [Cmpd 166, 1-5-[(furan-3-ylmethyl)amino]-3-(pyridin-2-yl)-1H-pyrazol-1-yl-2,2-dimethylpropan-1-one]
31 | > 1000 | CC(C)(C)C(=O)Nc1nc(C(=O)N2CCOCC2)n[nH]1 [Cmpd 169, 2,2-dimethyl-N-3-[(morpholin-4-yl)carbonyl]-1H-1,2,4-triazol-5-ylpropanamide]
32 | > 1000 | O=C(Nc1nc(C(=O)N2CCOCC2)n[nH]1)c1ccccc1Cl [Cmpd 170, 2-chloro-N-3-[(morpholin-4-yl)carbonyl]-1H-1,2,4-triazol-5-ylbenzamide]
33 | > 1000 | O=C(Nc1nc(C(=O)N2CCCC2)n[nH]1)c1ccccc1Cl [Cmpd 171, 2-chloro-N-3-[(pyrrolidin-1-yl)carbonyl]-1H-1,2,4-triazol-5-ylbenzamide]
34 | > 1000 | O=C(Oc1ccccc1Cl)n1nc(-c2cccnc2)nc1NCc1ccc(F)cc1 [Cmpd 172, 2-chlorophenyl 5-[(4-fluorophenyl)methyl]amino-3-(pyridin-3-yl)-1H-1,2,4-triazole-1-carboxylate]
